Results on six molecules are retold here after patent publication US7071158B2, “Antioxidant enhancement of therapy for hyperproliferative conditions” (Atherogenics, Inc., priority 1997, dated 2006).

Data set [1] deals with HCT 15 cells. The data set can be described thus: Apoptotic index (TUNEL) with or without induced C/EBPβ overexpression. The data set is classed as cell-based, human. The following applies: 5-FU 1.5 μM or doxorubicin 0.1 μM, 24 hours. The procedure: Control HCT 15 cells and the sense C/EBPβ cell line were induced with 10 μM muristerone A and exposed to either 5-FU (1.5 μM) or doxorubicin (0.1 μM) for 24 hours. The apoptotic index was calculated as described in FIG. 4C.
Finally, the functional role of C/EBPβ was examined in the apoptotic signaling pathway by generating lines of HCT 15 cells that were stably transfected with the human C/EBPβ cDNA, in both the sense and antisense orientation, under the control of an ecdysone inducible promoter. To avoid the possibility that constitutively expressed C/EBPβ might induce cell death, and ecdysone (muristerone A)-inducible expression system (Invitrogen, Carlsbad, Calif.) was used. Human C/EBPβ cDNA was subcloned into pIND at convenient enzyme cleavage ites. Constructs, containing sense and antisense C/EBPβ sequences were verified by double-stranded DNA sequencing. Before transfection, pIND-C/EBPβ constructs were linearized with Pme I and purified. HCT 15 cells were transfected with 5 μg of pVgRXR (Invitrogen) and 10 μg of pIND-C/EBPβ using CELLFECTIN according to manufacture's instructions. After 24 hours, cells were shifted to medium supplemented with 1 mg/ml Geneticin and […] puromycin (GIBCO BRL) to select for transfectant clones. After 2 weeks, antibiotic-resistant cells were subcloned by limiting dilution. The expression of C/EBPβ protein and the subsequent induction of p21^WAF1/CIP1 was determined following induction with 10 μM muristerone A for 24 hours and Western blot analysis.

For data set [2], the system named is advanced, frequently mutant p53-containing colorectal cancer tumors. The following applies: patients with advanced; cited from earlier work.
The test system of another data set is HCT 15-derived tumors. The data set can be described thus: HCT 15 tumor xenografts in athymic mice. The data set is classed as in vivo.
Data set [3] deals with HCT 116 CRC tumor xenografts. The data set can be described thus: HCT 116 tumor xenografts in athymic mice. The following applies: for tumor volume compared to saline-treated controls: single agents, 6 weeks. The data set is classed as in vivo.
Method: HCT 116 CRC cells were injected subcutaneously between the scapula of nu/nu mice. Once tumors reached approximately 150 mm^3, the animals either received weekly i.p. injections of pyrrolidinedithiocarbamate (70 μM) or vitamin E (3 MM), 5-FU (40 mg/kg) or saline, or both an antioxidant and 5-FU. Tumor volume was calculated weekly.
(§5) Male athymic Balb/c nu/nu mice were obtained from the Harlan Sprague-Dawley Company at 4–6 weeks of age and were quarantined for at least 2 weeks before the study. […] HCT 116 and HCT 15 CRC cell lines were grown in DMEM supplemented with 10% FBS as described above. Cells were harvested through two consecutive trypsinizations, centrifuged at 300 g for 5 minutes, washed twice, and resuspended in sterile phosphate buffered saline. One ×10^6 cells in 0.2 ml were injected subcutaneously between the scapula of 7- to 10-week-old male nude mice.
(§6) Tumor volumes were estimated weekly by measuring the maximal length, width, and height. Once tumors reached a mean size of 120 to 150 mm^3, animals received either weekly i.p. injections of pyrrolidinedithiocarbamate (70 μM) or vitamin E (3 mM), 5-FU (40 mg/kg) or saline, or a combination of pyrrolidinedithiocarbamate or vitamin E and 5-FU or 6 weeks. In cross-over experiments, animals received the above treatments for three weeks (with the exception of vitamin E), and then were crossed-over to either the combination treatment of pyrrolidinedithiocarbamate and 5-FU (saline, pyrrolidinedithiocarbamate or 5-FU alone) or discontinued treatment pyrrolidinedithiocarbamate and 5-FU) for the remaining three weeks of the experiment. […] Tumor volumes were recorded weekly until termination of the study.
Tumor tissues were fixed overnight in 4% (v/v) paraformaldehyde and embedded in paraffin according to standard histological procedures. […] TdT labeling of fragmented DNA (TUNEL) was performed as described. The proliferative index (BrDU) and the apoptotic index (TUNEL) were estimated by the percentage of cells scored under a microscope at 200-fold magnification.
In another data set the test system is HCT 15 CRC cells. Kind of data set: Flow cytometric cell cycle analysis (propidium iodide). It is filed as cell-based, human. The following applies: HCT 15, pyrrolidinedithiocarbamate 70 μM or vitamin E 3 mM, 24 hours. The procedure: (§1) FIG. 1B is a series of flow cytometric analyses that indicate that antioxidants induce G1 cell cycle arrest and apoptosis in CRC cells. […] Twenty-four hours following antioxidant exposure, cells were harvested and flow cytometric analysis performed.
(§2) DNA Content of nuclei was determined as described [I. G. Nicoletti et al., J Immunol. Methods. 139, 271 (1991)] by lysing plasma membranes, staining nuclear DNA with propidium iodide ([…]), and quantitating the relative DNA content of nuclei using the Becton Dickinson FACSORT fluorescence-activated cell sorter. The proportion of nuclei in each phase of the cell cycle was determined using MODFIT-DNA analysis software. Detection of apoptotic cells either by fluorescence microscopy or by flow cytometry was performed using the ApopTag Plus In Situ Apoptosis Detection Kit (Oncor, Gaithersburg, Md.) as described in the manufacturer's protocol. Briefly, gigoxygenin-labeled nucleotides were added to free 3′OH groups of DNA produced by DNA fragmentation during apoptosis by terminal deoxynucleotidyl transferase (TdT). Digoxygenin was detected by a FTC-conjugated anti-digoxygenin antibody. Analysis was carried out using the fluorescence-activated cell sorter and FITC staining visualized using a fluorescence microscope (Zeiss). […]

The test system of a further data set is HCT 116 CRC cells. The data set is described as above. The following applies: HCT 116, pyrrolidinedithiocarbamate 70 μM or vitamin E 3 mM, 24 hours. It is filed as cell-based, human. Here is the method: as §1, §2
The test system of data set [4] is HCT 15 cells. The data set can be described thus: Soft-agar colony formation (anchorage-independent growth). The procedure:
(§3) FIG. 1A is a graph of the concentration of PDTC versus soft-agar forming units×10^6 HCT 15 and HCT 116 cells (as a percent of control). […] Soft-agar colony formation was measured by seeding HCT 116 or HCT 15 cells in soft agar supplemented with either medium alone (control), or increasing concentrations of pyrrolidinedithiocarbamate (25–200 μM) or vitamin E (0.1–10 mM). Colonies were scored at the end of 10 days incubation at 37° C. Values are representative of three experiments carried out in quadruplicate.
(§4) HCT 116 and HCT 15 cells were seeded in soft agar as described above containing increasing concentrations of either 5-FU (5×10^−8 to 5×10^−5 M) or doxorubicin (1×10^−9 to 1×10^−6 M), in the presence or absence of pyrrolidinedithiocarbamate (70 μM) or vitamin E (3 mM). Colonies were scored after 10 days and IC50 values were calculated as the concentration of 5-FU or doxorubicin required to reduce basal colony formation by 50% (±s.e.m.). Values are representative of three experiments carried out in quadruplicate.

Another data set deals with HCT 116 cells. The description is as above. The procedure:
as §3, §4

In the next data set the test system is endogenous H2O2. The data set can be described thus: Intracellular H2O2 levels by flow cytometry with dihydrorhodamine. It is filed as cell-based, human. The following applies: up to 24 hours. The procedure: FIG. 1C is a bar graph of the hours after test compound treatment versus intracellular H2O2 levels. FIG. 1C illustrates the negative association between intracellular redox status and cell cycle perturbations. Changes in the intracellular redox status were determined by the measurement of endogenous H2O2 levels. Background fluorescence was subtracted from each reading. Values are expressed as corrected DHR mean per 10^4 cells±s.e.m. The percentage of G1 (circle) or apoptotic (TUNEL-positive: square) cells by flow cytometric analysis.
HCT 15 cells were incubated with pyrrolidinedithiocarbamate (70 μM), vitamin E (3 mM), N-acetylcysteine (50 μM) or vitamin C (200 μM) for 24 hours. Endogenous H2O2 levels and cell cycle changes were measured as described in FIG. 1C. […] Values from cells transfected with the empty plasmid were subtracted from those obtained from the catalase-containing cells and were expressed as mean±s.e.m. from duplicate dishes.
Intracellular H2O2 levels were analyzed by flow cytometry using […] (DHR) as a specific fluorescent dye probe [G. Rothe, A. Emmendorffer, A. Oser, J. Roesler, G. Valet, J Immun. […] Cellular rhodamine 123 fluorescence intensity of 1×10^4 cells was measured for each sample using a Becton-Dickenson FACS Vantage flow cytometer with the excitation source at 488 nm and emission wave length of 580 nm. […]
In general terms: In flow cytometry, cells or beads pass a laser one at a time.

Another data set concerns CRC cell. The data set can be described thus: CRC cell plating efficiency. It is filed as cell-based, human. The following applies: 25–200 μM (pyrrolidinedithiocarbamate) and 0.1–10 mM (vitamin E), preliminary studies.
The next data set relates to rats. The following applies: intravenously; cited from earlier work.
For the next data set, the system named is PP2A. The data set can be described thus: Dephosphorylation of radiolabeled C/EBPβ in DKO-1 lysates. It is filed as biochemical, human. The following applies: DKO-1 cell lysates (cells treated with 17 μM PDTC for three hours), ten minutes at 37 degrees C. The procedure: FIG. 13 is a graph of time in hours versus percent radioactivity remaining on the protein substrate. […] The activity of PDTC is compared to I2 (a selective PP1 inhibitor), okadaic acid (an inhibitor of both PP2A and PP1), I2 and PDTC, and okadaic acid and PDTC. DKO-1 cells were grown in the presence of PDTC (test) or not (control). The cells were lysed, and then radioactive phosphorylated C/EBPβ was added. The test compounds were then added, and incubated with the lysate. The protein was collected and the amount of radioactive phosphate remaining in the protein measured.
Cell lysates were prepared and treated with the following reagents in the presence of phosphorylated C/EBPβ in which the phosphate is radiolabeled, for ten minutes at 37 degrees C: I2 (a selective PP1 inhibitor), okadaic acid (a selective inhibitor of PP2A and PP1), PDTC, I2 and PDTC, and okadaic acid and PDTC. […] This effect is reversible following removal of the antioxidant.

The mark [5] stands for this setting: HCT 15 cells induced to overexpress C/EBPβ.
The mark [6] stands for this setting: HCT 15 cells, absence of C/EBPβ overexpression.
[7] abbreviates: HCT 116 xenografts, weekly i.p. injections.

Method for HCT 15-derived tumors: HCT 15-derived tumors were generated as described above. Animals were then treated with pyrrolidinedithiocarbamate, in the presence or absence of 5-FU, for 3 weeks. At this point, treatments were discontinued in animals receiving the combined treatment of pyrrolidinedithiocarbamate and 5-FU for 2 months. All other treatment groups received both 5-FU and pyrrolidinedithiocarbamate for the remaining 3 weeks.
as §5, §6
Tumor tissues were fixed overnight in 4% (v/v) paraformaldehyde and embedded in paraffin according to standard histological procedures. […] The proliferative index (BrDU) and the apoptotic index (TUNEL) were estimated by the percentage of cells scored under a microscope at 200-fold magnification.

With `O=c1[nH]cc(F)c(=O)[nH]1` [5-FU, 5-fluorouracil], the apoptotic index is reported as 70% in the data set with HCT 15 cells [1] (setting [5]) and 20% in the data set with HCT 15 cells [1] (setting [6]). In data set [2], the success rate was 15–20%. For the same molecule, the tumor size in the data set on HCT 15-derived tumors (HCT 15-derived tumors, after 3 weeks of single agent treatment, before cross-over) is 1864+190 mm^3. Further, the “tumor volume compared to saline-treated controls” value in data set [3] (setting [7]) is “significantly reduced tumor volume”.

For the molecule `Cc1c(C)c2c(c(C)c1O)CCC(C)(C(=O)O)O2` (stereo not shown) [6-hydroxy-2.5,7,8-tetramethylchroman-2-carboxylic acid], the “accumulation of cells in the G1 peak” value with HCT 15 CRC cells and with HCT 116 CRC cells was “induced a significant accumulation of cells in the G1 peak” throughout. The “effect on the IC50 of 5-FU and doxorubicin” value in the data set with HCT 15 cells [4] was “decreased the IC50 for both 5-FU and doxorubicin”; with HCT 116 cells it was “decreased the IC50 for both 5-FU and doxorubicin”. Further, the anchorage-independent growth result in the data set on HCT 15 cells [4] (HCT 15 cells, increasing amounts (25–200 μM pyrrolidinedithiocarbamate, 0.1–10 mM vitamin E)) is “dose-dependent reduction in anchorage-independent growth”; in the data set on HCT 116 cells (HCT 116 cells, increasing amounts (25–200 μM pyrrolidinedithiocarbamate, 0.1–10 mM vitamin E)), “dose-dependent reduction in anchorage-independent growth”. Besides, the IC50 is roughly 3000 µM with HCT 15 cells [4] (read-out: approximate IC50 in soft agar, HCT 15 cells, soft agar, 10 days) and roughly 3000 µM in the data set on HCT 116 cells (read-out: approximate IC50 in soft agar, HCT 116 cells, soft agar, 10 days). Further, the “endogenous H2O2 levels” value is on record as “significantly reduced endogenous H2O2 levels” with endogenous H2O2 (HCT 15 cells, N-acetylcysteine 50 μM, vitamin C 200 μM) and “significantly reduced endogenous H2O2 levels” in the data set on endogenous H2O2 (HCT 116 cells). Also, the “CRC cell plating efficiency” value in the data set on CRC cell is “no significant effect on CRC cell plating efficiency”. The “increase of apoptotic index (TUNEL) of residual tumors” value (with HCT 15-derived tumors (HCT 15 xenograft model); in [3] (HCT 116 xenograft model)) was “approximately 5 fold” throughout. Also, the “effect of adding the antioxidant to 5-FU on tumor volume” value in data set [3] (HCT 116 xenografts, weekly i.p. injections, combined with 5-FU (40 mg/kg)) was “significantly enhanced the effect of 5-FU”. Also, the “tumor volume compared to saline-treated controls” value in data set [3] (setting [7]) is “significantly reduced tumor volume”.

In the case of `CC(=O)N[C@@H](CS)C(=O)O` [N-acetylcysteine, acetamido-mercaptopropionic acid], the LD50 with rats is listed as 1140 mg/kg.

Consider `COc1cccc2c1C(=O)c1c(O)c3c(c(O)c1C2=O)C[C@@](O)(C(=O)CO)C[C@@H]3O[C@H]1C[C@H](N)[C@H](O)[C@H](C)O1` [doxorubicin], for which the apoptotic index with HCT 15 cells [1] (setting [5]) is listed as 80%; with HCT 15 cells [1] (setting [6]), “did not induce apoptosis”.

Consider `C=C1[C@@H](O)[C@@H]2O[C@]3(CC[C@H](/C=C/[C@@H](C)[C@@H]4CC(C)=C[C@@]5(O[C@H](C[C@@](C)(O)C(=O)O)CC[C@H]5O)O4)O3)CC[C@H]2O[C@@H]1[C@@H](O)C[C@H](C)[C@H]1O[C@@]2(CCCCO2)CC[C@H]1C` [okadaic acid, reference compound], for which the “phosphatase activity toward phosphorylated C/EBPβ” value in the data set with PP2A is “inhibited all DKO-1 phosphatase activity”.

B1: I2: a selective PP1 inhibitor (protein, UniProt P41236 2-205, looked up)
Protein phosphatase inhibitor …: AASTASHRPIKGILKNKTSTTSSMVASAEQPRGNVDEELSKKSQKWDEMNILATYHPADKDYGLMKIDEPSTPYHSMMGDDEDACSDTEATEAMAPDILARKLAAAEGLEPKYRIQEQESSGEEDSDLSPEEREKKRQFEMKRKLHYNEGLNIKLARQLISKDLHDDDEDEEMLETADGESMNTEESNQGSTPSDQQQNKLRSS
On to B1, for which the “phosphatase activity toward phosphorylated C/EBPβ” value in the data set on PP2A is “failed to protect C/EBPβ from dephosphorylation”.

In general, IC50 refers to the concentration that gives 50% inhibition. For orientation: LD50 means the dose at which mortality reaches 50%.
